Where two headings read alike, the source gives them in different places.
Columns and labels:
MDA-MB231 = assay: IC50 of triazenes in MDA-MB231 cell line (Experiment 3); type: cell-based; settings: Homo sapiens, MDA-MB-231; IC50 für die MDA-MB231 gemäß Experiment 3; used as incubation concentration for PBC
From the text: Die nachfolgenden Experimente 3 und 4 zeigen, dass die erfindungsgemäßen neuen Triazenverbindungen eine vergleichbare Anti-Tumorwirkung (IC50) in zahlreichen Krebszelllinien wie der HepG2 (Leber), HCT8 (Darm), DU-145 (Prostata), MCF-7 und MDA-MB-231 (Brust) und MiaPaca-2 (Bauchspeicheldrüse) bei bis zu 100fach niedrigeren Konzentrationen zeigen als vergleichbare Triazene wie DTIC, TMZ oder Substanzen wie sie in der WO 2009/004060 und der DE 1 7931 1 5 beschrieben sind.
Verschiedene Triazene wie erfindungsgemäße Verbindungen nach Beispiel 1, DTIC, TMZ sowie Verbindungen nach Präparat 2 und 5 (entsprechend Verbindungen nach Präparat 2 und Beispiel 2a jeweils der WO 2009/004060) sowie Verbindungen nach Beispiel 33 der DE1793115 wurden in DMSO bzw. Wasser gelöst.
(§1) Periphäre Blutzellen (PBC) werden jeweils mit der IC50 für die MDA-MB231 gemäß Experiment 3 der entsprechenden Substanzen inkubiert. Es wird gezeigt, dass die erfindungsgemäße Verbindung nach Beispiel 1 nicht mehr DNA-Schädigungen in den PBC erzeugt als eine Negativkontrolle, […]

[1] = Formulation trials for intravenous application (Experiment 8); type: physicochemical
Protocol: Um die Testergebnisse aus Experiment 7 in einem in-vivo Xenograft Modell zu bestätigen, wurden Formulierungsversuche mit Verbindungen nach Beispiel 1 sowie der Verbindung nach Beispiel 2 aus DE 1 793 1 15, als den wirksamsten Verbindungen aus Experiment 7, unternommen.
15mg der Verbindung nach Beispiel 1 werden in 30µL DMSO ([…]) gelöst. Diese Stocklösung wird in 270µL 1 M Na2CO3 Lösung gegeben und nur leicht geschwenkt, nicht aber mittels Ultraschallbad behandelt.
Gleichermaßen sollte eine Formulierung für Verbindungen nach Beispiel 2 aus DE 1 7 93 1 15 hergestellt werden. Hier wurden 15µL der Verbindung nach Beispiel 2 vorgelegt. Bei einer Dichte von 1,08g/ml entsprach dies 16,2mg der Verbindung nach Beispiel 2. Dazu wurden 32,4µL DMSO gegeben. […] Sodann wurden 90µL einer frisch hergestellten 1 molaren Na2CO3 Lösung vorgelegt und 10µL der Lösung der Verbindung nach Beispiel 2 hinzugegeben. […] Auch mittels Ultraschallbad konnte keine Auflösung des erzeugten Niederschlags herbeiführen.

CEM = assay: Growth inhibition (IC50) in leukaemic CEM cells (Experiment 7); type: cell-based; settings: Homo sapiens, CCRF-CEM, 24 Stunden
From the text: (§2) Hämatologische Zellen (CEM, HL-60) wurden für 24 Stunden mit unterschiedlichen Dosen verschiedener Triazenverbindungen inkubiert, um die IC50 zu bestimmen.

HL-60 = assay: Growth inhibition (IC50) in leukaemic HL-60 cells (Experiment 7); type: cell-based; settings: Homo sapiens, HL-60, 24 Stunden
From the text: as §2

[2] = test system: periphere Blutzellen (PBC); assay: Cell damage (apoptosis rate, CaspACE assay, flow cytometry) in peripheral blood cells (Experiment 5); type: cell-based; settings: for % Zellen in Apoptose: Versuch 1 Lymphozyten, 24 Stunden incubation at the IC50 for MDA-MB231
From the text: Um die therapeutische Breite der neuen Substanzen abschätzen zu können, wurden periphere Blutzellen (PBC) und hämatologische Zellen (Nalm-6; CEM und U-937) für 24 Stunden mit unterschiedlichen Dosen verschiedener Triazenverbindungen bzw. Doxorubicin als positive Kontrolle für die hämatologischen Zelllinien inkubiert. Das Maß der Zellschädigung (Apoptoserate) wurde mittels CaspACE™ Assay (am Durchflusszytometer) bestimmt.
Verschiedene Triazene wie erfindungsgemäße Verbindungen nach Beispiel 1, TMZ sowie Verbindungen nach Präparat 2 und 5 (entsprechend Verbindungen nach Präparat 2 und Beispiel 2a jeweils der WO 2009/004060) wurden in DMSO bzw. Wasser entsprechend den Angaben in Abbildung 22 gelöst.
as §1

MCF-7-Zellen = assay: Intracellular metabolisation of triazenes in MCF-7 cell culture (Experiment 1); type: in vitro ADME; settings: MCF-7, 100nmol/ml, 100% FCS, binnen 20 Stunden
Protocol: Es wird gezeigt, dass Verbindungen nach Beispiel 1 schneller und in größerer Menge intrazellulär metabolisiert werden als die als Vergleichssubstanzen eingesetzten Verbindungen nach Präparat 2 und 5 (entsprechend Verbindungen nach Präparat 2 und Beispiel 2a jeweils der WO 2009/004060).
Die getesteten Verbindungen wurden wie folgt gelöst: • Erfindungsgemäße Verbindung: • Beispiel 1 : in 20 mg/ml DMSO
Vergleichssubstanzen: • Präparat 2: in 50mg/ml DMSO, • Präparat 5: in 50mg/ml Wasser.
Alle drei Substanzen wurden äquimolar in einer Dosis von 100nmol/ml auf 1 x 10^7 HepG2 bzw. MCF-7-Zellen gegeben. Als Zellkulturmedium wurde 100% fötales Kälberserum (FCS) verwendet. Für den Versuch wurde der Gehalt aus Ausgangsprodukt und Metaboliten im Zellüberstand nach 1, 3 und 6 (HepG2) bzw. 1,3 und 20 Stunden (MCF-7) Inkubationszeit ermittelt. Alle drei Substanzen zeigten in Kontrollversuchen mit 100% FCS nach 40 Stunden metabolische Stabilität.

[3] = mean of Exp. 1-4, read-out: IC50 Mittelwert
[4] = mean of Exp. 1-5, read-out: IC50 Mittelwert

Structure (SMILES) | IC50 (MDA-MB231) | Löslichkeit in DMSO ([1]; 16,2mg in 32,4µL DMSO) | Löslichkeit in der Formulierung ([1]; DMSO stock solution given into 1 M Na2CO3 Lösung) | stabile und verträgliche Formulierung ([1]; Lösungsmittel wie Cremophor, PEG400, Tween80, Poloxamer) | IC50 (CEM; [3]) | IC50 (CEM; read-out: IC50 Exp. 1) | IC50 (CEM; read-out: IC50 Exp. 2) | IC50 (CEM; read-out: IC50 Exp. 3) | IC50 (CEM; read-out: IC50 Exp. 4) | IC50 (HL-60; [4]) | IC50 (HL-60; read-out: IC50 Exp. 1) | IC50 (HL-60; read-out: IC50 Exp. 2) | IC50 (HL-60; read-out: IC50 Exp. 3) | IC50 (HL-60; read-out: IC50 Exp. 4) | IC50 (HL-60; read-out: IC50 Exp. 5) | % Zellen in Apoptose [2] | metabolisiert (MCF-7-Zellen) | Zellschädigung (Apoptoserate) vs. Negativkontrolle ([2]; PBC, 24 stündige Inkubation)
CN(C)N=Nc1ccc(C(=O)c2ccccc2)cc1 [Beispiel 2 der DE 1793115] | 25.5 µM | löste sich vollständig | Sofort fiel weißer Niederschlag aus | nicht erreicht werden konnte | 10 µM | 10.3 µM | 10.3 µM | 8.69 µM | 10.7 µM | 10 µM | 8.69 µM | 11.8 µM | 11.1 µM | 9.47 µM | 9.08 µM | 6,570% |  | 
CN(C)/N=N/c1[nH]cnc1C(N)=O [Dacarbazine] | 625 µM |  |  |  |  |  |  |  |  |  |  |  |  |  |  | 8,260% |  | 
COc1cccc2c1C(=O)c1c(O)c3c(c(O)c1C2=O)C[C@@](O)(C(=O)CO)C[C@@H]3O[C@H]1C[C@H](N)[C@H](O)[C@H](C)O1 [Doxorubicin] |  |  |  |  | 8510 µM | 6810 µM | 5890 µM | 9940 µM | 114 µM |  | 0.0012 µM | 0.00116 µM | 0.000662 µM | 0.00131 µM | 0.00134 µM |  |  | 
CN(C)N=Nc1ccc(C(=O)c2ccc(OCCC(=O)NCC(=O)O)cc2)cc1 [Präparat 5] |  |  |  |  | 735 µM | 754 µM | 879 µM | 678 µM | 628 µM | 1190 µM | 829 µM | 879 µM | 1530 µM | 1510 µM |  |  | ~30% | 
Cn1nnc2c(C(N)=O)ncn2c1=O [Temozolomide, 4-methyl-5-oxo-2,3,4,6,8-pentazabicyclo [4.3.0] nona-2,7,9-triene-9-carboxamide] | 515 µM |  |  |  |  |  |  |  |  |  |  |  |  |  |  | 15,320% |  | Anstieg der Apoptoserate

— patent EP2557075A1, “New triazene compounds for treating cancer” (Trin Therapeutics GmbH, priority 2011, dated 2013)
